Test results published in PMC6353076, “Impact of CodY protein on metabolism, sporulation and virulence in Clostridioides difficile ribotype 027” (PLoS ONE, 2019).

Biological target: T1, CdCodY GAF domain (Clostridioides difficile, UniProt Q18BE1)
T1 construct: gene codY; N-terminal GAF domain, CdCodY(1-156); six molecules in the asymmetric unit
Assay: X-ray crystal structure, […] A
Type: binding
Conditions: GAF-domain effector pocket; contacts N40, Y42, D60, S62, F74, F101, E104, K110, S130

T1 sequence (Q18BE1 entry or part of it): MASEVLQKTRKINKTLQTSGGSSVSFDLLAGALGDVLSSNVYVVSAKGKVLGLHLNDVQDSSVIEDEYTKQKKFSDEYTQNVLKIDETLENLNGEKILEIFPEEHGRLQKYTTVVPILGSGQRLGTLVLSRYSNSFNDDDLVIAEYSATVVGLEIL

CC[C@H](C)[C@H](N)C(=O)O [isoleucine]
X-ray crystal structure, 1.7 A: The crystal structure of the GAF domain of CdCodY bound to isoleucine was solved
